Molecular target: T1, human chemokine receptor 2 isoform B (Homo sapiens, UniProt P41597)
T1 construct: host or cells: CHOK1-CCR2B-A5 (CHO-K1)
T1 sequence (P41597 1-360 isoform P41597-2): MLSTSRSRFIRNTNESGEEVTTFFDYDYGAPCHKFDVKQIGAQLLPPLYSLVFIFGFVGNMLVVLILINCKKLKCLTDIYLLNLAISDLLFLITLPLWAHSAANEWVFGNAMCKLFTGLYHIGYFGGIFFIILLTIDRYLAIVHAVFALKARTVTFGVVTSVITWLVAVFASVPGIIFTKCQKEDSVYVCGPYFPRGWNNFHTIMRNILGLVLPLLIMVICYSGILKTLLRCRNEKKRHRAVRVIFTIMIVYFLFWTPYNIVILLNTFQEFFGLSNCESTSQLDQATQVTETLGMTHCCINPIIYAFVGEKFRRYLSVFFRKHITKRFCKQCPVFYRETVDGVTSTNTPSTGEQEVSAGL
Assay: Calcium mobilization assay (FLIPR, CHOK1-CCR2B-A5 cells, 20 nM MCP-1)
Format: cell-based
Details: Ca mobilisation assay, CCR2, antagonist activity vs 20 nM MCP-1
In short: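 FLIPR Fluo-4 calcium readout in CHO-K1 cells stably overexpressing human CCR2B; compounds first monitored 80 s for agonist activity, then after 20-30 min at 30 °C challenged with 20 nM MCP-1. Response is max minus basal fluorescence; antagonist value is concentration giving 50% inhibition of specific calcium increase.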

SMILES	IC50
CC1(CO)CCN(CC(O)CN2CCN(C(=O)C=Cc3ccc(Cl)c(Cl)c3)CCC2=O)CC1O (single isomer, unassigned) [Example 330]	6 nM
CC1(CO)CCN(CC(O)CN2CCN(C(=O)C=Cc3ccc(Cl)c(Cl)c3)CCC2=O)CC1O (single isomer, unassigned) [Example 331]	59 nM
CC1CCN(CCCN2CCN(C(=O)C=Cc3ccc(Cl)c(F)c3)CCC2=O)CC1O (single isomer, unassigned) [Example 491, 1-[(E)-3-(4-Chloro-3-fluoro-phenyl)-acryloyl]-4-[3-((+,cis)-3-hydroxy-4-methyl-piperidin-1-yl)-propyl]-[1,4]diazepan-5-one]	216 nM
CC1CCN(CCCN2CCN(C(=O)C=Cc3ccc(Cl)c(F)c3)CCC2=O)CC1O (single isomer, unassigned) [Example 492, 1-[(E)-3-(4-Chloro-3-fluoro-phenyl)-acryloyl]-4-[3-((−,cis)-3-hydroxy-4-methyl-piperidin-1-yl)-propyl]-[1,4]diazepan-5-one]	26 nM
O=C(/C=C/c1cccc(Cl)c1)N1CCC(=O)N(CCN2CCCC2)CC1 [Example 1, 1-[(E)-3-(3-Chloro-phenyl)-acryloyl]-4-(2-pyrrolidin-1-yl-ethyl)-[1,4]diazepan-5-one]	681 nM
O=C(/C=C/c1ccc(Cl)c(Cl)c1)N1CCC(=O)N(CCN2CCCCC2)CC1 [Example 3, 1-[(E)-3-(3,4-Dichloro-phenyl)-acryloyl]-4-(2-piperidin-1-yl-ethyl)-[1,4]diazepan-5-one]	1240 nM
O=C(/C=C/c1ccc(Cl)c(Cl)c1)N1CCC(=O)N(CCCN2CCCCC2)CC1 [Example 4, 1-[(E)-3-(3,4-Dichloro-phenyl)-acryloyl]-4-(3-piperidin-1-yl-propyl)-[1,4]diazepan-5-one]	150 nM
O=C(/C=C/c1ccc(Cl)c(Cl)c1)N1CCC(=O)N(CCCN2CCOCC2)CC1 [Example 6, 1-[(E)-3-(3,4-Dichloro-phenyl)-acryloyl]-4-(3-morpholin-4-yl-propyl)-[1,4]diazepan-5-one]	1310 nM
O=C(/C=C/c1ccc(F)c(F)c1)N1CCC(=O)N(CCCN2CCCCC2)CC1 [Example 7, 1-[(E)-3-(3,4-Difluoro-phenyl)-acryloyl]-4-(3-piperidin-1-yl-propyl)-[1,4]diazepan-5-one]	1290 nM
O=C(/C=C/c1ccc(Cl)c(Cl)c1)N1CCC(=O)N(CCCCN2CCCCC2)CC1 [Example 9, 1-[(E)-3-(3,4-Dichloro-phenyl)-acryloyl]-4-(4-piperidin-1-yl-butyl)-[1,4]diazepan-5-one]	140 nM
CN(CCCCN1CCN(C(=O)/C=C/c2ccc(Cl)c(Cl)c2)CCC1=O)C1CCOCC1 [Example 10, 1-[(E)-3-(3,4-Dichloro-phenyl)-acryloyl]-4-{4-[methyl-(tetrahydro-pyran-4-yl)-amino]-butyl}-[1,4]diazepan-5-one]	73 nM
O=C(/C=C/c1ccc(F)c(Cl)c1)N1CCC(=O)N(CCCN2CCCCC2)CC1 [Example 11, 1-[(E)-3-(3-Chloro-4-fluoro-phenyl)-acryloyl]-4-(3-piperidin-1-yl-propyl)-[1,4]diazepan-5-one]	363 nM
O=C(/C=C/c1ccc(Cl)c(F)c1)N1CCC(=O)N(CCCN2CCCCC2)CC1 [Example 13, 1-[(E)-3-(4-Chloro-3-fluoro-phenyl)-acryloyl]-4-(3-piperidin-1-yl-propyl)-[1,4]diazepan-5-one]	727 nM
O=C(/C=C/c1ccc(OCc2ccccc2)cc1)N1CCC(=O)N(CCN2CCCC2)CC1 [Example 17, 1-[(E)-3-(4-Benzyloxy-phenyl)-acryloyl]-4-(2-pyrrolidin-1-yl-ethyl)-[1,4]diazepan-5-one]	756 nM
O=C(/C=C/c1ccc2ccccc2c1)N1CCC(=O)N(CCN2CCCC2)CC1 [Example 25, 1-(E)-(3-Naphthalen-2-yl-acryloyl)-4-(2-pyrrolidin-1-yl-ethyl)-[1,4]diazepan-5-one]	1020 nM
O=C(/C=C/c1cccc(Cl)c1)N1CCC(=O)N(CCN2CCC(c3c[nH]c4cc(F)ccc34)CC2)CC1 [Example 27, 1-[(E)-3-(3-Chloro-phenyl)-acryloyl]-4-{3-[4-(6-fluoro-1H-indol-3-yl)-piperidin-1-yl]-ethyl}-[1,4]diazepan-5-one]	248 nM
O=C(/C=C/c1cccc(Cl)c1)N1CCC(=O)N(CCN2CCC(c3ccccc3)CC2)CC1 [Example 32, 1-[(E)-3-Chloro-phenyl-acryloyl]-4-{2-[4-phenyl-piperidin-1-yl]-ethyl}-[1,4]diazepan-5-one]	1470 nM

SMILES	IC50
O=C(/C=C/c1cccc(Cl)c1)N1CCC(=O)N(CCN2CCC(c3ccc(F)cc3)CC2)CC1 [Example 33, 1-[(E)-3-(3-Chloro-phenyl)-acryloyl]-4-[3-(4-(4-fluoro-phenyl)-piperidin-1-yl)-ethyl]-[1,4]diazepan-5-one]	343 nM
O=C(/C=C/c1cccc(Cl)c1)N1CCC(=O)N(CCN2CCC(c3cccc(Cl)c3)CC2)CC1 [Example 34, 1-[(E)-3-(3-Chloro-phenyl)-acryloyl]-4-{2-[4-(3-chloro-phenyl)-piperidin-1-yl]-ethyl}-[1,4]diazepan-5-one]	1390 nM
O=C(/C=C/c1ccc(Cl)c(Cl)c1)N1CCC(=O)N(CCCNC2CCCC2)CC1 [Example 36, 4-[3-(Cyclopentyl-amino)-propyl]-1-[(E)-3-(3,4-dichloro-phenyl)-acryloyl]-[1,4]diazepan-5-one]	725 nM
CN(CCCN1CCN(C(=O)/C=C/c2ccc(Cl)c(Cl)c2)CCC1=O)C1CCCC1 [Example 37, 4-[-3-(Cyclopentyl-methyl-amino)-propyl]-1-[(E)-3-(3,4-dichloro-phenyl)-acryloyl]-[1,4]diazepan-5-one]	265 nM
CN(CCCN1CCN(C(=O)/C=C/c2ccc(Cl)c(Cl)c2)CCC1=O)C1CCCCC1 [Example 39, 4-[3-(Cyclohexyl-methyl-amino)-propyl]-1-[(E)-3-(3,4-dichloro-phenyl)-acryloyl]-[1,4] diazepan-5-one]	538 nM
O=C(/C=C/c1ccc(Cl)c(Cl)c1)N1CCC(=O)N(CCCN2CCS(=O)(=O)CC2)CC1 [Example 40, 1-[(E)-3-(3,4-Dichloro-phenyl)-acryloyl]-4-[3-(1,1-dioxo-thiomorpholin-4-yl)-propyl]-[1,4]diazepan-5-one]	611 nM
COCCN(C)CCCN1CCN(C(=O)/C=C/c2ccc(Cl)c(Cl)c2)CCC1=O [Example 41, 1-[(E)-3-(3,4-Dichloro-phenyl)-acryloyl]-4-{3-[(2-methoxy-ethyl)-methyl-amino]-propyl}-[1,4]diazepan-5-one]	1180 nM
O=C(/C=C/c1ccc(Cl)c(Cl)c1)N1CCC(=O)N(CCCN2CCC(c3ccccc3)CC2)CC1 [Example 45, 1-[(E)-3-(3,4-Dichloro-phenyl)-acryloyl]-4-[3-(4-phenyl-piperidin-1-yl)-propyl]-[1,4]diazepan-5-one]	13 nM
O=C(/C=C/c1ccc(Cl)c(Cl)c1)N1CCC(=O)N(CCCN2CCCC2)CC1 [Example 46, 1-[(E)-3-(3,4-Dichloro-phenyl)-acryloyl]-4-(3-pyrrolidin-1-yl-propyl)-[1,4]diazepan-5-one]	333 nM
O=C(/C=C/c1ccc(Cl)c(Cl)c1)N1CCC(=O)N(CCCN2CCC[C@H]2CO)CC1 [Example 47, (S)-1-[(E)-3-(3,4-Dichloro-phenyl)-acryloyl]-4-[3-(2-hydroxymethyl-pyrrolidin-1-yl)-propyl]-[1,4]diazepan-5-one]	193 nM
O=C(/C=C/c1ccc(Cl)c(Cl)c1)N1CCC(=O)N(CCCN2CCC(O)(Cc3ccccc3)CC2)CC1 [Example 49, 4-[(E)-3-(4-Benzyl-4-hydroxy-piperidin-1-yl)-propyl]-1-[(E)-3-(3,4-dichloro-phenyl)-acryloyl]-[1,4]diazepan-5-one]	510 nM
CC1CCN(CCCN2CCN(C(=O)/C=C/c3ccc(Cl)c(Cl)c3)CCC2=O)CC1 [Example 50, 1-[(E)-3-(3,4-Dichloro-phenyl)-acryloyl]-4-[3-(4-methyl-piperidin-1-yl)-propyl]-[1,4]diazepan-5-one]	55 nM
O=C(/C=C/c1ccc(Cl)c(Cl)c1)N1CCC(=O)N(CCCN2CCSCC2)CC1 [Example 51, 1-[(E)-3-(3,4-Dichloro-phenyl)-acryloyl]-4-(3-thiomorpholin-4-yl-propyl)-[1,4]diazepan-5-one]	46 nM
O=C(/C=C/c1ccc(Cl)c(Cl)c1)N1CCC(=O)N(CCCN2CCC(O)(c3ccncc3)CC2)CC1 [Example 53, 1-[(E)-3-(3,4-Dichloro-phenyl)-acryloyl]-4-[3-(4-hydroxy-3,4,5,6-tetrahydro-2H-[4,4′]bipyridinyl-1-yl)-propyl]-[1,4]diazepan-5-one]	441 nM
O=C(/C=C/c1ccc(Cl)c(Cl)c1)N1CCC(=O)N(CCCN2CCC(F)(F)CC2)CC1 [Example 55, 1-[(E)-3-(3,4-Dichloro-phenyl)-acryloyl]-4-[3-(4,4-difluoro-piperidin-1-yl)-propyl]-[1,4]diazepan-5-one]	98 nM
O=C(/C=C/c1ccc(Cl)c(Cl)c1)N1CCC(=O)N(CCCN2CCC(N3CCNC3=O)CC2)CC1 [Example 56, 1-[(E)-3-(3,4-Dichloro-phenyl)-acryloyl]-4-{3-[4-(2-oxo-imidazolidin-1-yl)-piperidin-1-yl]-propyl}-[1,4]diazepan-5-one]	1080 nM
O=C(/C=C/c1ccc(Cl)c(Cl)c1)N1CCC(=O)N(CCCN2CCC(c3cc[nH]n3)CC2)CC1 [Example 57, 1-[(E)-3-(3,4-Dichloro-phenyl)-acryloyl]-4-{3-[4-(1H-pyrazol-3-yl)-piperidin-1-yl]-propyl}-[1,4]diazepan-5-one]	217 nM
